Results taken from patent US20230373939A1 (VERTEX PHARMACEUTICALS INCORPORATED, priority 2020, published 2023).
Where two headings read alike, the source gives them in different places.

Target: T1, F508del in NIH 3T3 cells (Homo sapiens, UniProt P13569, DEL508-508)
T1 construct: expressed in transfected cells
Assay: 3T3 assay: membrane potential optical assay for F508del correction
Assay type: cell-based
From the text: 1. Membrane Potential Optical Methods for Assaying F508del Modulation Properties of Compounds
The assay utilizes fluorescent voltage sensing dyes to measure changes in membrane potential using a fluorescent plate reader (e.g., FLTPR III, Molecular Devices, Inc.) as a readout for increase in functional F508del in NIH 3T3 cells. The driving force for the response is the creation of a chloride ion gradient in conjunction with channel activation by a single liquid addition step after the cells have previously been treated with compounds and subsequently loaded with a voltage sensing dye.
2. Identification of Corrector Compounds
To identify correctors of F508del, a single-addition HTS assay format was developed. This HTS assay utilizes fluorescent voltage sensing dyes to measure changes in membrane potential on the FLIPR III as a measurement for increase in gating (conductance) of F508del in F508del NUT 3T3 cells. The F508del NUT 3T3 cell cultures were incubated with the corrector compounds at a range of concentrations for 18-24 hours at 37° C., and subsequently loaded with a redistribution dye. The driving force for the response is a Cl^− ion gradient in conjunction with channel activation with forskolin in a single liquid addition step using a fluorescent plate reader such as FLIPR III.
Bath Solution #1: (in mM) NaCl 160, KCl 4.5, CaCl2 2, MgCl2 1, HEPES 10, pH 7.4 with NaOH.
Chloride-free bath solution: Chloride salts in Bath Solution #1 (above) are substituted with gluconate salts.
NIH3T3 mouse fibroblasts stably expressing F508del were used for optical measurements of membrane potential. The cells were maintained at 37° C. in 5% CO2 and 90% humidity in Dulbecco's modified Eagle's medium supplemented with 2 mM glutamine, 10% fetal bovine serum, 1×NEAA, b-ME, 1×pen/strep, and 25 mM HEPES in 175 cm^2 culture flasks. For all optical assays, the cells were seeded at ˜20,000/well in 384-well Matrigel-coated plates. For the correction assays, the cells were cultured at 37° C. with and without compounds for 16-24 hours.

[1] = NIH3T3, NIH 3T3 cells, F508del, read-out: 3T3 Max Activity (%)
[2] = NIH 3T3 cells, F508del, read-out: 3T3 EC50
[3] = NIH3T3, read-out: 3T3 Max Activity (%)

T1 sequence (P13569 with tags, fused parts or gaps DEL508-508): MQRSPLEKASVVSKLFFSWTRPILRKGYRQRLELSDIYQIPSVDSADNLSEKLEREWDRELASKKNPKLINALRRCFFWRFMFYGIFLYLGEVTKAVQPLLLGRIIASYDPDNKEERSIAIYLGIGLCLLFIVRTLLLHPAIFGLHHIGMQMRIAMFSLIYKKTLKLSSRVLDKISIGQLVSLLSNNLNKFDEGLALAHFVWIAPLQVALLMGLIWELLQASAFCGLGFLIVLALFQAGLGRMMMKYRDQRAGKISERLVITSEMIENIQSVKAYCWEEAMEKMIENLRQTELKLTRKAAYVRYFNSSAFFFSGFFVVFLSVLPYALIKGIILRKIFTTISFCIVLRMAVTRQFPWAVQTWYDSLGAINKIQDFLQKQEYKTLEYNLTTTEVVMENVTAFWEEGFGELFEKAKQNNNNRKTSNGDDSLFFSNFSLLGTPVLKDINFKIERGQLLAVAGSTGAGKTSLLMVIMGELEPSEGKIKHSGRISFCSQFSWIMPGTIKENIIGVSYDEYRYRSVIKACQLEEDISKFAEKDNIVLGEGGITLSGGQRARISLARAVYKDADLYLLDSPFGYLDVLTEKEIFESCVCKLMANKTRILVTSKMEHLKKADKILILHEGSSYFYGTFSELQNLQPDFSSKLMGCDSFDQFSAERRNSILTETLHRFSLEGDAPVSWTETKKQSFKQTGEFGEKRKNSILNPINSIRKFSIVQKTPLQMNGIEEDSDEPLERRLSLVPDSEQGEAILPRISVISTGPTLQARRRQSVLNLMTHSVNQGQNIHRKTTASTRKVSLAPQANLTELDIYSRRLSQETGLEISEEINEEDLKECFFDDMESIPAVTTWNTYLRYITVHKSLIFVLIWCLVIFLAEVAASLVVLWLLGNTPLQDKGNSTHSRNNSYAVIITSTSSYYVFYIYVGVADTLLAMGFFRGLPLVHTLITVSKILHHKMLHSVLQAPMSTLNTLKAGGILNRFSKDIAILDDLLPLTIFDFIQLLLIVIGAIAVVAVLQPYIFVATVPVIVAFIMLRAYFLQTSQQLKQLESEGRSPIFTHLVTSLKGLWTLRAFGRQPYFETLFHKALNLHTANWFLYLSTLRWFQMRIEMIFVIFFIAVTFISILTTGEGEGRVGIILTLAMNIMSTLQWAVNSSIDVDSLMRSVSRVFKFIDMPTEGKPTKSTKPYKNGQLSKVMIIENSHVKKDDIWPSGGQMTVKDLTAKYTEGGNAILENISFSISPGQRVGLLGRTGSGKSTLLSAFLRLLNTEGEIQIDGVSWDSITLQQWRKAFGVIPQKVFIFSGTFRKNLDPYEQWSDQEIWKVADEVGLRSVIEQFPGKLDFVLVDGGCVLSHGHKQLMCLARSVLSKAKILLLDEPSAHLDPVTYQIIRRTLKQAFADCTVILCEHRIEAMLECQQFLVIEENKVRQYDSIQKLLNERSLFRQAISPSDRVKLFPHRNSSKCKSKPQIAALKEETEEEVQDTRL

For O=C(Nc1ccccc1)c1sc(NS(=O)(=O)c2ccccc2)nc1-c1ccccc1 [Compound 33, N,4-diphenyl-2-(phenylsulfonamido)thiazole-5-carboxamide], the Emax [1] was under 30%.
In the case of O=C(c1sc(NS(=O)(=O)c2ccccc2)nc1-c1ccccc1)N1CCCCC1 [Compound 34, N-[4-phenyl-5-(piperidine-1-carbonyl)thiazol-2-yl]benzenesulfonamide], the Emax [1] is reported as under 30%.
For COCCNC(=O)c1sc(NS(=O)(=O)c2ccccc2)nc1-c1ccccc1 [Compound 35, 2-(benzenesulfonamido)-N-(2-methoxyethyl)-4-phenyl-thiazole-5-carboxamide], the Emax [1] was under 30%.
In the case of CC(C)(C)NC(=O)c1sc(NS(=O)(=O)c2ccccc2)nc1-c1ccccc1 [Compound 36, 2-(benzenesulfonamido)-N-tert-butyl-4-phenyl-thiazole-5-carboxamide], the Emax [1] is reported as under 30%.
Work on O=C(NCCOCC1CC1)c1sc(NS(=O)(=O)c2ccccc2)nc1-c1ccccc1 [Compound 37, 2-(benzenesulfonamido)-N-[2-(cyclopropylmethoxy)ethyl]-4-phenyl-thiazole-5-carboxamide] yielded an Emax [1] of under 30%.
For CCCN(C)C(=O)c1sc(NS(=O)(=O)c2ccccc2)nc1-c1ccccc1 [Compound 38, 2-(benzenesulfonamido)-N-methyl-4-phenyl-N-propyl-thiazole-5-carboxamide], the Emax [1] was under 30%.
CCCNC(=O)c1sc(NS(=O)(=O)c2ccccc2)nc1-c1ccccc1 [Compound 39, 2-(benzenesulfonamido)-4-phenyl-N-propyl-thiazole-5-carboxamide] gave an Emax [1] of under 30%.
COC(=O)Cc1nc(NS(=O)(=O)c2ccccc2)sc1-c1ccccc1 [Compound 40, methyl 2-[2-(benzenesulfonamido)-5-phenyl-thiazol-4-yl]acetate] was tested, and the Emax [1] was 30 to 60% and the EC50 [2] was 3000 to 30000 nM.
Molecule CCOC(=O)c1nc(NS(=O)(=O)c2ccccc2)sc1-c1ccccc1 [Compound 41, ethyl 2-(benzenesulfonamido)-5-phenyl-thiazole-4-carboxylate] has an Emax [1] of 30 to 60% and an EC50 [2] of 1000 to 3000 nM.
O=C(O)c1sc(NS(=O)(=O)c2ccccc2)nc1-c1ccccc1 [Compound 42, 4-phenyl-2-(phenylsulfonamido)thiazole-5-carboxylic acid] showed an Emax [1] of 30 to 60%.
Work on Cc1sc(NS(=O)(=O)c2ccccc2)nc1-c1ccncc1 [Compound 43, N-[5-methyl-4-(4-pyridyl)thiazol-2-yl]benzenesulfonamide] yielded an Emax [1] of under 30%.
Cc1nc(NS(=O)(=O)c2ccccc2)sc1-c1csc(Nc2ncccn2)n1 [Compound 44, N-[4-methyl-5-[2-(pyrimidin-2-ylamino)thiazol-4-yl]thiazol-2-yl]benzenesulfonamide] gave an Emax [1] of under 30%.
For CC(C)(C)c1nc(NS(=O)(=O)c2ccccc2)sc1C#N [Compound 45, N-(4-tert-butyl-5-cyano-thiazol-2-yl)benzenesulfonamide], the Emax [1] was under 30%.
In the case of Cc1nc(NS(=O)(=O)c2ccccc2)sc1C [Compound 46, N-(4,5-dimethylthiazol-2-yl)benzenesulfonamide], the Emax [1] is reported as under 30%.
CCCc1nc(NS(=O)(=O)c2ccccc2)sc1C [Compound 47, N-(5-methyl-4-propyl-thiazol-2-yl)benzenesulfonamide] showed an Emax [1] of under 30%.
Work on Cc1cccc(-c2cc(NS(=O)(=O)c3ccccc3)nn2-c2c(C)cc(C)cc2C)c1 [Compound 48, N-[5-(m-tolyl)-1-(2,4,6-trimethylphenyl)pyrazol-3-yl]benzenesulfonamide] yielded an Emax [3] of over 60% and an EC50 [2] of under 1000 nM.
For Cc1cc(C)c(-n2nc(NS(=O)(=O)c3ccccc3)cc2-c2ccc(Oc3ccccc3)cc2)c(C)c1 [Compound 49, N-[5-(4-phenoxyphenyl)-1-(2,4,6-trimethylphenyl)pyrazol-3-yl]benzenesulfonamide], the Emax [3] was 30 to 60% and the EC50 [2] was under 1000 nM.
COc1cccc(-c2cc(NS(=O)(=O)c3ccccc3)nn2-c2c(C)cc(C)cc2C)c1 [Compound 50, N-[5-(3-methoxyphenyl)-1-(2,4,6-trimethylphenyl)pyrazol-3-yl]benzenesulfonamide] gave an EC50 of 1000 to 3000 nM and an Emax [3] of over 60%.
Work on CC(C)=Cc1cc(NS(=O)(=O)c2ccccc2)nn1-c1c(C)cc(C)cc1C [Compound 51, N-[5-(2-methylprop-1-enyl)-1-(2,4,6-trimethylphenyl)pyrazol-3-yl]benzenesulfonamide] yielded an Emax [1] of over 60% and an EC50 [2] of 1000 to 3000 nM.
Cc1cc(C)c(-n2nc(NS(=O)(=O)c3ccccc3)cc2CC(C)C)c(C)c1 [Compound 52, N-[5-isobutyl-1-(2,4,6-trimethylphenyl)pyrazol-3-yl]benzenesulfonamide] showed an Emax [1] of over 60% and an EC50 [2] of 1000 to 3000 nM.
Work on Cc1cc(C)c(-n2nc(NS(=O)(=O)c3ccccc3)cc2C(C)(C)C)c(C)c1 [Compound 53, N-[5-tert-butyl-1-(2,4,6-trimethylphenyl)pyrazol-3-yl]benzenesulfonamide] yielded an Emax [1] of under 30%.
Cc1cc(C)c(-n2nc(NS(=O)(=O)c3ccccc3)cc2-c2cccc(Oc3ccccc3)c2)c(C)c1 [Compound 54, N-[5-(3-phenoxyphenyl)-1-(2,4,6-trimethylphenyl)pyrazol-3-yl]benzenesulfonamide] was tested, and the Emax [1] was 30 to 60% and the EC50 [2] was under 1000 nM.
Cc1cc(C)c(-n2nc(NS(=O)(=O)c3ccccc3)cc2-c2ccccc2Oc2ccccc2)c(C)c1 [Compound 55, N-[5-(2-phenoxyphenyl)-1-(2,4,6-trimethylphenyl)pyrazol-3-yl]benzenesulfonamide] gave an Emax [1] of over 60% and an EC50 [2] of under 1000 nM.
For Cc1cc(C)c(-n2nc(NS(=O)(=O)c3ccccc3)cc2-c2ccc(Cl)cc2)c(C)c1 [Compound 56, N-[5-(4-chlorophenyl)-1-(2,4,6-trimethylphenyl)pyrazol-3-yl]benzenesulfonamide], the Emax [1] was 30 to 60% and the EC50 [2] was under 1000 nM.
Cc1cc(C)c(-n2nc(NS(=O)(=O)c3ccccc3)cc2-c2cccc(Cl)c2)c(C)c1 [Compound 57, N-[5-(3-chlorophenyl)-1-(2,4,6-trimethylphenyl)pyrazol-3-yl]benzenesulfonamide] gave an Emax [1] of over 60% and an EC50 [2] of under 1000 nM.
Cc1cc(C)c(-n2nc(NS(=O)(=O)c3ccccc3)cc2-c2ccccc2Cl)c(C)c1 [Compound 58, N-[5-(2-chlorophenyl)-1-(2,4,6-trimethylphenyl)pyrazol-3-yl]benzenesulfonamide] showed an Emax [1] of over 60% and an EC50 [2] of under 1000 nM.
Molecule COc1ccc(-c2cc(NS(=O)(=O)c3ccccc3)nn2-c2c(C)cc(C)cc2C)cc1 [Compound 59, N-[5-(4-methoxyphenyl)-1-(2,4,6-trimethylphenyl)pyrazol-3-yl]benzenesulfonamide] has an Emax [1] of 30 to 60% and an EC50 [2] of under 1000 nM.
For COc1ccccc1-c1cc(NS(=O)(=O)c2ccccc2)nn1-c1c(C)cc(C)cc1C [Compound 60, N-[5-(2-methoxyphenyl)-1-(2,4,6-trimethylphenyl)pyrazol-3-yl]benzenesulfonamide], the Emax [1] was over 60% and the EC50 [2] was 1000 to 3000 nM.
With Cc1ccc(-c2cc(NS(=O)(=O)c3ccccc3)nn2-c2c(C)cc(C)cc2C)cc1 [Compound 61, N-[5-(p-tolyl)-1-(2,4,6-trimethylphenyl)pyrazol-3-yl]benzenesulfonamide] the Emax [1] was 30 to 60% and the EC50 [2] was under 1000 nM.
Work on Cc1cc(C)c(-n2nc(NS(=O)(=O)c3ccccc3)cc2-c2ccccc2C)c(C)c1 [Compound 62] yielded an Emax [1] of over 60% and an EC50 [2] of under 1000 nM.
Cc1cc(C)c(-n2nc(NS(=O)(=O)c3ccccc3)cc2C2=CCCCC2)c(C)c1 [Compound 63, N-[5-(cyclohexen-1-yl)-1-(2,4,6-trimethylphenyl)pyrazol-3-yl]benzenesulfonamide] showed an Emax [1] of over 60% and an EC50 [2] of 1000 to 3000 nM.
Cc1cc(C)c(-n2nc(NS(=O)(=O)c3ccccc3)cc2C2CCCCC2)c(C)c1 [Compound 64, N-[5-cyclohexyl-1-(2,4,6-trimethylphenyl)pyrazol-3-yl]benzenesulfonamide] gave an Emax [1] of over 60% and an EC50 [2] of under 1000 nM.
In the case of C=C(C)c1cc(NS(=O)(=O)c2ccccc2)nn1-c1c(C)cc(C)cc1C [Compound 65, N-[5-isopropenyl-1-(2,4,6-trimethylphenyl)pyrazol-3-yl]benzenesulfonamide], the Emax [1] is reported as over 60% and the EC50 [2] is reported as 1000 to 3000 nM.
Cc1cc(C)c(-n2nc(NS(=O)(=O)c3ccccc3)cc2C(C)C)c(C)c1 [Compound 66, N-[5-isopropyl-1-(2,4,6-trimethylphenyl)pyrazol-3-yl]benzenesulfonamide] was tested, and the Emax [1] was 30 to 60% and the EC50 [2] was 1000 to 3000 nM.
Molecule Cc1cc(C)c(-n2nc(NS(=O)(=O)c3ccccc3)cc2Br)c(C)c1 [Compound 67, N-[5-bromo-1-(2,4,6-trimethylphenyl)pyrazol-3-yl]benzenesulfonamide] has an Emax [1] of over 60% and an EC50 [2] of 1000 to 3000 nM.
With Cc1cc(C)c(-n2nc(NS(=O)(=O)c3ccccc3)cc2-c2ccccc2)c(C)c1 [Compound 68, N-[5-phenyl-1-(2,4,6-trimethylphenyl)pyrazol-3-yl]benzenesulfonamide] the Emax [1] was over 60% and the EC50 [2] was 1000 to 3000 nM.
